Measurements published in US12233064B1, “Antarctic tunicate Synoicum species-derived alkaloids and methods of treatment” (University of South Florida, priority 2019, dated 2025).

How the values were obtained:
zebrafish embryos = test: Developmental (phenotypic) zebrafish bioassay; type: in vivo, Danio rerio; conditions: for Final C tested (concentration most representative of the phenotype) / MTC (Maximum Tolerated Concentration) / concentration at which interesting phenotype demonstrated: zebrafish embryos; for Final C tested (concentration most representative of the phenotype): 24 h post fertilization; for MTC (Maximum Tolerated Concentration): compound added 4 h, end 24 h post fertilization; for phenotype of treated embryos compared to control: 24h post-fertilization, FIG. 16
Experimental: Wildtype Danio rerio fish were used for the assay. Once the zebrafish eggs were collected, they were placed in fresh media along with methylene blue, to deter fungal growth. The embryos were sorted and placed in a 96-well plate and the volume was standardized. For the purpose of this screening it was determined that the optimal point to add the compounds was 4 hours post fertilization and the ending point of the assay was 24 hours post fertilization. The delay in growth and the dysmorphologies were monitored and assessed.
A developmental zebrafish assay was utilized to test the activity of the extract, the subsequent fractions, and the isolated compounds. […] The Maximum Tolerated Concentration (MTC) was determined for each compound, alongside the minimum active concentration for each compound. The final tested concentration was determined as the one most representative of the phenotype.

Leishmaniasis = Leishmaniasis assay
Plasmodium falciparum = conditions: synthetic Meridianin A; cited from earlier work
[1] = tested on: A549 (Human lung adenocarcinoma epithelial cell line); conditions: synthetic Meridianin A; cited from earlier work

| SMILES | Final C tested (concentration most representative of the phenotype) (zebrafish embryos) | MTC (Maximum Tolerated Concentration) (zebrafish embryos) | result of Leishmaniasis assay (Leishmaniasis) | growth of P. falciparum (Plasmodium falciparum) | cytotoxicity to A549 [1] | phenotype of treated embryos compared to control (zebrafish embryos) | concentration at which interesting phenotype demonstrated (zebrafish embryos) |
| --- | --- | --- | --- | --- | --- | --- | --- |
| Nc1nccc(C2(O)C(=O)Nc3ccccc32)n1 (stereo not shown) [Australindolone A] | 300 µM | 1000 µM |  |  |  |  |  |
| Nc1nccc(-c2c[nH]c3cccc(O)c23)n1 [Meridianin A] | 30 µM | 100 µM | notable | inhibit the growth of P. falciparum | cytotoxic to A549 |  |  |
| Nc1nccc(-c2c[nH]c3cc(Br)cc(O)c23)n1 [Meridianin B] | 100 µM | 300 µM |  |  |  |  |  |
| Nc1nccc(-c2c[nH]c3ccc(Br)cc23)n1 [Meridianin C] | 3 µM | 10 µM |  |  |  | truncation of the anterior-posterior axis | 3 µM |
| Nc1nccc(-c2c[nH]c3cc(Br)ccc23)n1 [Meridianin D] | 65 µM | 100 µM |  |  |  |  |  |
| Nc1nccc(-c2c[nH]c3c(Br)ccc(O)c23)n1 [Meridianin E] | 10 µM | 100 µM |  |  |  |  |  |
| Nc1nccc(-c2c[nH]c3cc(Br)c(Br)cc23)n1 [Meridianin F] | 2 µM | 10 µM |  |  |  | truncation of the anterior-posterior axis | 2 µM |
| Nc1nccc(-c2c[nH]c3ccccc23)n1 [Meridianin G] | 100 µM | 300 µM |  |  |  |  |  |
| Nc1nccc(-c2c[nH]c3c(Br)cc(Br)c(O)c23)n1 [Meridianin H] | 60 µM | 100 µM |  |  |  |  |  |
